Results taken from article PMC8750527 (Cancers, 2021).

What was measured:
[1] = tested on: subcutaneous HD-MB03 tumors; experiment: Subcutaneous HD-MB03 xenografts; assay type: in vivo, mouse; conditions: oral, thrice a week
Method: For subcutaneous xenograft experiments, tumor cells expressing the luciferase (350,000 HDMB-Luc cells and 1.10^6 DAOY-Luc cells) were resuspended in 200 µL of 5 µg/mL Matrigel (Corning Inc., Corning, NY, USA) and injected subcutaneously in the flank of 5-week-old Rj:NMRI-Foxn1 nude (nu/nu) female mice (Janvier Labs, Le Genest-Saint-Isle, France). Saline solution (NaCl 0.9M; 100 µL) containing 30 mg/mL D-Luciferin (Perkin Elmer, Wellesley, MA, USA) was injected intraperitoneally in the animals and the bioluminescence was quantified using an In Vivo Imaging System (Perkin Elmer, Wellesley, MA, USA) according to the manufacturer’s instructions. Tumor volume (V = L × l2 × 0.52) was determined with a caliper and the endpoint was determined as a tumor volume of 1000 mm^3. […] The mice were sacrificed when the tumor reached 1000 mm^3. […] No statistical methods were used to predetermine the sample size of the experiments. Animal facility availability and cost were used to determine sample sizes. Two independent cohorts of five mice per group were used for the tumor growth experiment with HD-MB03 cells and one cohort of five mice per group was used for the experiment with DAOY cells. Animal experiments were carried out in strict accordance with the recommendations in the Guide for the Care and Use of Laboratory Animals. Our experiments were approved by Direction de l’Action Sanitaire et Sociale of the Principality of Monaco and the ethics committee of Centre Scientifique de Monaco.
(§1) The growth rate of the tumors generated with HD-MB03 cells was determined using a linear regression method applied to the growth curves between the sizes of 400 mm^3 up to the endpoint using Prism 5 (Graphpad Software Inc., San Diego, CA, USA).
Tumor samples were recovered from the animals and embedded in the OCT compound according to the manufacturer’s protocol (Thermo Fisher Scientific Inc., Waltham, MA, USA). After that, 5 µm thin sections were prepared with a cryostat (Leica Microsystems, Wetzlar, Germany). Incubation was carried out with the following antibodies diluted at 1:1000 in TBS supplemented with 1% horse serum and 1% BSA for 20 min at room temperature: anti-Ki67 (cat. number ab16667, Abcam, Cambridge, UK), anti-CD31 (cat. number 550274, BD Biosciences, Frankton Lake, NJ, USA) or anti-αSMA (cat. number A2547, Merck Millipore, Burlington, MA, USA). The preparations were then washed with TBS–0.025% Triton, incubated with anti-rabbit Alexa488 and anti-mouse Alex-555-coupled secondary antibodies (Cell Signaling Technology, Danvers, MA, USA), washed with TBS–0.025% Triton, and the nuclei were counterstained with Hoechst33342 (Thermo Fisher Scientific, Waltham, MA, USA). Fluorescence images of the cells were taken with a DMI400 inverted microscope equipped with a 40× objective (Leica Microsystemes, Nanterre, France) and a Zyla 5.5 camera (Andor Technologies, Belfast, UK) powered by the Micromanager software. At least one cross-section of nonoverlapping images of each tumor was acquired. All the images were then quantified with the CellProfiler 3.0 software.

DAOY = experiment: Cumulative population doubling (CPD), DAOY; assay type: cell-based, human; conditions: continuous treatment; axitinib 5 µM, etoposide 1 µM
Method: (§2) Cumulative population doubling (CPD) was assessed as previously described. Briefly, depending on the cell line, a variable number of cells corresponding to about 30% confluency were seeded in triplicate in 60 mm diameter Petri dishes. […] The cells were harvested when the confluency reached about 90%, counted and plated again at a dilution of 1/20. CPD was calculated as previously described.

HDF = experiment: Cell viability, propidium iodine incorporation, HDF; assay type: cell-based, human; conditions: 48 h; axitinib, cabozantinib 5 µM, etoposide 1 µM
Method: (§3) Cell viability assays were conducted using a propidium iodine incorporation technique with an ADAM-sHIT automated cell counter (NanoEnTek, Gyeonggi-do, Korea) according to the manufacturer’s protocol.

[2] = LC/MS measurement of axitinib in rat cerebellum; assay type: in vivo; conditions: after 28 days of 50 mg/kg/day oral gavage
Excerpt: The experiments were approved by Comité National Institutionnel d’Ethique pour l’Animal de Laboratoire (France). The rats were bled and the brains were recovered and flash-frozen at the end of the experiment.

subcutaneous DAOY tumors = conditions: oral, thrice a week; axitinib 50 mg/kg, etoposide 30 mg/kg, combination 25 + 15 mg/kg
Method: For subcutaneous xenograft experiments, tumor cells expressing the luciferase (350,000 HDMB-Luc cells and 1.10^6 DAOY-Luc cells) were resuspended in 200 µL of 5 µg/mL Matrigel (Corning Inc., Corning, NY, USA) and injected subcutaneously in the flank of 5-week-old Rj:NMRI-Foxn1 nude (nu/nu) female mice (Janvier Labs, Le Genest-Saint-Isle, France). Saline solution (NaCl 0.9M; 100 µL) containing 30 mg/mL D-Luciferin (Perkin Elmer, Wellesley, MA, USA) was injected intraperitoneally in the animals and the bioluminescence was quantified using an In Vivo Imaging System (Perkin Elmer, Wellesley, MA, USA) according to the manufacturer’s instructions. Tumor volume (V = L × l2 × 0.52) was determined with a caliper and the endpoint was determined as a tumor volume of 1000 mm^3. […] The mice were sacrificed when the tumor reached 1000 mm^3. […]
as §1
Tumor samples were recovered from the animals and embedded in the OCT compound according to the manufacturer’s protocol (Thermo Fisher Scientific Inc., Waltham, MA, USA). […] All the images were then quantified with the CellProfiler 3.0 software.

[3] = tested on: children presenting with refractory or recurrent tumors; conditions: phase I study ref 20; cited from earlier work
[4] = tested on: MB cells (DAOY, HD-MB03, D283, D458, CHLA-01-MED spheroids); experiment: Spheroid assay, five MB cell lines; assay type: cell-based, human; conditions: 5 µM, continuous treatment
Method: Two thousand cells were seeded in ultralow-adhesion 96-well plates (Corning Inc., Corning, NY, USA). […] Pictures were taken with an AMG Evos microscope 40× objective (Thermo Fisher Scientific Inc, Waltham, MA, USA) and the spheroid areas were measured using the ImageJ software (NIH, Bethesda, MD, USA).

MB cells = experiment: Cell viability, propidium iodine incorporation, MB cells; assay type: cell-based, human; conditions: 48 h, 5 µM
Method: as §3

[5] = tested on: human brain endothelial cells (BEC, hCMEC/D3); experiment: MTT assay, brain endothelial cells; assay type: cell-based; conditions: after three days, 1, 5 and 25 µM tested
C8-D1A = experiment: Cumulative population doubling (CPD), C8-D1A; assay type: cell-based, murine
Method: as §2

[6] = tested on: normal cells (C8-D1A, HDF); experiment: Proliferation index assay, normal cells; conditions: 120 h; axitinib 5 µM, etoposide 1 µM
HD-MB03 = experiment: Cumulative population doubling (CPD), HD-MB03; assay type: cell-based, human; conditions: continuous treatment; axitinib 5 µM, etoposide 1 µM
Method: as §2

[7] = axitinib 50 mg/kg, etoposide 30 mg/kg, combination 25 + 15 mg/kg

CNC(=O)c1ccccc1Sc1ccc2c(/C=C/c3ccccn3)n[nH]c2c1 [Axitinib, axitinib]
number of endothelial cells (CD31-positive) and/or pericytes/cancer-associated fibroblasts (αSMA-positive) [1]: did not impact
surface of necrotic areas [1]: increased the surface of necrotic areas
tumor growth rates (linear regression, growth phase) [1]: reduced
median time to reach the endpoint volume (1000 mm^3) [1, 7]: 18 days
range of time to reach the endpoint volume (1000 mm^3) [1, 7]: 13 to 63 days
long-term proliferation (CPD) of DAOY cells (DAOY): strongly impaired their proliferation
viability of HDF normal cells (HDF): no effect on the viability
axitinib content of cerebella (LC/MS) [2]: present in the cerebellum
tumor growth (lognormal mathematical modelling) (subcutaneous DAOY tumors): did not impair tumor growth
maximum tolerated and recommended dose in children [3]: 2.4 mg/m^2
3D growth of MB cell spheroids [4]: abolished 3D growth
viability of MB cells (MB cells): decreased the viability of most MB cells
doses displaying toxicity in brain endothelial cells [5]: higher than 1 µM
long-term proliferation (CPD) of C8-D1A cells (C8-D1A; continuous treatment, 5 µM axitinib, compared to etoposide 1 µM): milder effect
proliferation (CPD) of C8-D1A normal cells after removal of the drug (C8-D1A; transient treatment for 48 h, 5 µM): able to proliferate again
proliferation of normal cells [6]: impaired in these conditions, although to a lower extent
long-term proliferation (CPD) of HD-MB03 cells (HD-MB03): strongly impaired their proliferation
